Laboratory results as given in US20260306460A1, “COMPOSITION FOR REMOVING AND INHIBITING SENESCENT CELLS, AND USES THEREOF” (LIFECEUTIX CO., LTD., priority 2023, published 2026).

Legend:
[1] = test system: HMGN1 secreted from senescent human cells; experiment: HMGN1 secretion (ELISA) from doxorubicin-induced senescent human cells, Example 11; format: cell-based; settings: senescent untreated = 100%; 30 μM; 90 μM for LX-305, 1302, 1603, 2005, 2702, 2901, 3106; 270 μM for LX-1103, 2007
senescent A549 cells = experiment: Viability of senescent A549 cancer cells (CellTiter-Glo), Example 12; format: cell-based, human; settings: 0 μM = 100
Description: Cells were treated with doxorubicin or control (DMSO) and cultured.
Cancer cells in which aging was induced by treatment with doxorubicin were treated with the test compound at designated concentrations and measured using the CellTiter-Glo Luminescent Cell Viability Assay (Promega).

[2] = test system: naturally aged C57BL6J mice; experiment: SA-β-gal staining in organs of naturally aged mice, Example 21-3, Table 19; format: in vivo, mouse; settings: staining area, untreated aged = 100
Description: (§1) 22-month-old female C57BL6J mice (KRIBB Laboratory Animal Resource Center) were acclimated to the experimental environment for one week, after which the aged mice were randomly assigned to experimental and control groups. Eight-week-old, non-aged mice served as controls. LX-403 was mixed in a 10% ethanol solution of PEG400 and administered orally at a concentration of 25 mg/kg daily for 21 days, or administered to the skin, joints, or eyes at a concentration of 1 μM. LX-1801 was mixed in distilled water with 4% DMSO, 30% PEG300, and 5% Tween80 and administered to the skin, joints, or eyes at a concentration of 0.4 μM daily for 21 days. LX-2001 was mixed in PBS and administered to the skin, joints, or eyes at a concentration of […] daily for 21 days. LX-2002 was mixed in distilled water with 4% DMSO, 30% PEG300, and 5% Tween80 and administered to the skin, joints, or eyes at a concentration of 2 μM daily for 21 days. […] LX-2005 was mixed in distilled water with 4% DMSO, 30% PEG300, and 5% Tween80 and administered to the skin, joints, or eyes at a concentration of 90 μM daily for 21 days. LX-2007 was mixed in distilled water with 4% DMSO, 30% PEG300, and 5% Tween80 and administered to the skin, joints, or eyes at a concentration of 90 μM daily for 21 days. […] LX-3002 was mixed in distilled water with 4% DMSO, 30% PEG300, and 5% Tween80 and administered orally at a concentration of 10 mg/kg daily for 21 days. […] LX-5411 was mixed in 5% PBS and administered orally at a concentration of 10 mg/kg daily for 21 days or administered to the skin, joints, or eyes at a concentration of 3 μM. LX-5701 was mixed in PBS and administered orally at a concentration of 360 mg/kg daily for 21 days. LX-6807 was mixed in saline and administered intraperitoneally at a concentration of 1 mg/kg daily for 21 days. LX-2101 or LX-2102 was mixed in PBS solution with 5% DMSO and administered intraperitoneally at a concentration of 20 mg/kg or 10 mg/kg, respectively, daily for 21 days. The control group received only the solution in the same volume. After the end of drug administration, the methods described in each example below were performed.
Mice were sacrificed, tissue sections were prepared from each organ, and stained for the senescence-associated marker (SA-β-gal) using the same method as in Example 7-3 of WO2023-085787 A1.

[3] = test system: naturally aged C57BL6J mice; experiment: SASP mRNA (MMP3, IL1B, MMP12, IL6, MMP13) in naturally aged mice, Example 21-6, Table 22; format: in vivo, mouse; settings: untreated aged = 100%
Description: as §1
Using cDNA synthesized in the same manner as Example 7-2 of WO2023-085787 A1, qRT-PCR was performed and analyzed for the senescence-associated secretory factors (SASPs) MMP3, IL1B, MMP12, IL6, and MMP13. […] The mRNA levels of each factor after aging induction were calculated as 100% and compared with the mRNA levels of each factor after test compound treatment.

[4] = test system: naturally aged C57BL6J mice; experiment: Cardiac aging (cardiomyocyte size, Sur2a mRNA) in naturally aged mice, Example 21-13, Table 28; format: in vivo, mouse; settings: heart; for Cardiomyocyte cross-sectional area (μm2): untreated aged 372 (±9); for Sur2a mRNA (fold): untreated aged = 1
Description: as §1
At the histological level, cardiac aging is characterized by the loss of ventricular cardiomyocytes due to a decreased ability to replace apoptotic or necrotic cardiomyocytes, leading to hypertrophy of the remaining cardiomyocytes. To assess age-related cardiac hypertrophy, frozen cardiac tissue sections were stained with hematoxylin/eosin (H/E) and the thickness of ventricular cardiomyocytes was observed under an optical microscope.
Furthermore, cardiac aging is characterized by decreased stress tolerance, which is known to be due to decreased expression of ATP-sensitive potassium (KATP) channels. RNA was extracted from heart tissue as described in Example 7-2 of WO2023-085787 A1, and qRT-PCR was performed on Sur2a, a regulatory subunit of the KATP channel, using the synthesized cDNA.

Compound	HMGN1 [1]	Survival (senescent A549 cells; 1.1 μM)	Survival (senescent A549 cells; 10 μM)	Survival (senescent A549 cells; […])	SA-β-gal (%), Kidney [2]	SA-β-gal (%), Liver [2]	SA-β-gal (%), Lung [2]	SA-β-gal (%), Skin [2]	SA-β-gal (%), eWAT [2]	MMP13 mRNA (%), Eye [3]	IL1β mRNA (%), Kidney [3]	MMP13 mRNA (%), Knee joint [3]	MMP3 mRNA (%), Liver [3]	MMP12 mRNA (%), Lung [3]	IL6 mRNA (%), Muscle [3]	MMP3 mRNA (%), Skin [3]	MMP12 mRNA (%), Skin [3]	MMP13 mRNA (%), Skin [3]	Cardiomyocyte cross-sectional area (μm2) [4]	Sur2a mRNA (fold) [4]
S=C(N/N=C1\CCCc2cccnc21)N1CCN(c2ccccn2)CC1 [LX-801]	265%	78.1%	12.7%	58.5%	–	–	–	–	–	–	–	–	–	–	–	–	–	–	–	–
CC1(C)CC[C@]2(NC(=O)C(C)(F)F)CC[C@]3(C)[C@H](C(=O)C=C4[C@@]5(C)C=C(C#N)C(=O)C(C)(C)[C@@H]5CC[C@]43C)[C@@H]2C1 [LX-2101, Omaveloxolone]	–	–	–	–	51 (±12.5) %	71 (±5.5) %	72 (±8.8) %	75 (±11.8) %	32 (±16.2) %	35%	73%	46%	45%	58%	69%	81%	82%	38%	–	–
COC(=O)[C@]12CCC(C)(C)C[C@H]1[C@H]1C(=O)C=C3[C@@]4(C)C=C(C#N)C(=O)C(C)(C)[C@@H]4CC[C@@]3(C)[C@]1(C)CC2 [LX-2102, Bardoxolone methyl]	–	–	–	–	62 (±8.6) %	68 (±6.8) %	59 (±14.6) %	77 (±5.4) %	49 (±9.7) %	71%	68%	77%	56%	66%	81%	83%	78%	68%	–	–
CCCC\C=C/C=C/C=C\CCCCCCCC(=O)O [LX-2707, Punicic acid]	–	–	–	–	–	–	–	–	–	–	–	–	–	–	–	–	–	–	331 (±15.7) μm2	–
O=C1C2CCN(CC2)C1CNC(=O)C(F)(F)F (centres unmarked) [LX-5701]	–	–	–	–	77 (±8.1) %	65 (±4.8) %	62 (±9.6) %	76 (±6.9) %	48 (±3.9) %	71%	58%	61%	59%	70%	38%	79%	71%	62%	297 (±20) μm2	2.8 (±0.2) fold
Cc1cccc([C@H](C)c2cnc[nH]2)c1C [LX-6807, Dexmedetomidine]	–	–	–	–	–	–	–	–	–	–	–	–	–	–	–	–	–	–	281 (±47.1) μm2	3.0 (±0.2) fold
Tocofersolan [LX-3001]	301%	101.6%	22.6%	95.6%	–	–	–	–	–	–	–	–	–	–	–	–	–	–	345 (±27.6) μm2	–
